From ChEMBL document CHEMBL1201862, “PubChem BioAssay data set” (2004)
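Values below derive from 48-hour exposures of cells grown in 96-well plates, with endpoints linearly interpolated between the two concentrations bracketing the appropriate inhibition level. Here, GI50 denotes the concentration required for 50% inhibition of growth.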 Active and inactive are the calls of the source. Cut-off read from the data, not from the text of the source: active = GI50 up to about 1.1 µM and inactive = higher.

Experiments:
Assay in all cases: NCI anticancer screen, dose series, 48 h
786-0 = test system: 786-0
A498 = test system: A498
A549 = test system: A549
ACHN = test system: ACHN
BT-549 = test system: BT-549
CAKI-1 = test system: CAKI-1
CCRF-CEM = test system: CCRF-CEM
COLO 205 = test system: COLO 205
DU-145 = test system: DU-145
EKVX = test system: EKVX
HCC 2998 = test system: HCC 2998
HCT-116 = test system: HCT-116
HCT-15 = test system: HCT-15
HL-60 = test system: HL-60
HOP-62 = test system: HOP-62
HOP-92 = test system: HOP-92
HT-29 = test system: HT-29
Hs-578T = test system: Hs-578T
IGROV-1 = test system: IGROV-1
K562 = test system: K562
KM12 = test system: KM12
LOX IMVI = test system: LOX IMVI
M14 = test system: M14
MCF7 = test system: MCF7
MDA-MB-231 = test system: MDA-MB-231
MDA-MB-435 = test system: MDA-MB-435
MDA-N = test system: MDA-N
MOLT-4 = test system: MOLT-4
Malme-3M = test system: Malme-3M
NCI-H226 = test system: NCI-H226
NCI-H23 = test system: NCI-H23
NCI-H460 = test system: NCI-H460
NCI/ADR-RES = test system: NCI/ADR-RES
OVCAR-3 = test system: OVCAR-3
OVCAR-4 = test system: OVCAR-4
OVCAR-5 = test system: OVCAR-5
OVCAR-8 = test system: OVCAR-8
PC-3 = test system: PC-3
RPMI-8226 = test system: RPMI-8226
RXF 393 = test system: RXF 393
SF-268 = test system: SF-268
SF-295 = test system: SF-295
SF-539 = test system: SF-539
SK-MEL-28 = test system: SK-MEL-28
SK-MEL-2 = test system: SK-MEL-2
SK-MEL-5 = test system: SK-MEL-5
SK-OV-3 = test system: SK-OV-3
SN12C = test system: SN12C
SNB-19 = test system: SNB-19
SNB-75 = test system: SNB-75
SR = test system: SR
SW-620 = test system: SW-620
T47D = test system: T47D
TK-10 = test system: TK-10
U-251 = test system: U-251
UACC-257 = test system: UACC-257
UACC-62 = test system: UACC-62
UO-31 = test system: UO-31
NCI-H522 = test system: NCI-H522

For `CN(C)CC1CCC/C(=C\c2ccc(OC(=O)/C=C/c3ccccc3)cc2)C1=O` (stereo unspecified), the GI50 (786-0) was 0.776 µM (active), the GI50 (A498) was 7.28 µM (inactive) and the GI50 (A549) was 2.75 µM (inactive). For the same molecule, the GI50 (ACHN) was 2.51 µM (inactive), the GI50 (BT-549) was 2.11 µM (inactive) and the GI50 (CAKI-1) was 1.82 µM (inactive). The GI50 (CCRF-CEM) was 0.265 µM (active), the GI50 (COLO 205) was 1.99 µM (inactive) and the GI50 (DU-145) was 2.47 µM (inactive). For the same molecule, the GI50 (EKVX) was 2.18 µM (inactive), the GI50 (HCC 2998) was 10.5 µM (inactive) and the GI50 (HCT-116) was 1.34 µM (inactive). For the same molecule, the GI50 (HCT-15) was 1.56 µM, the GI50 (HL-60) was 1.85 µM (inactive) and the GI50 (HOP-62) was 3.48 µM (inactive). The GI50 (HOP-92) was 2.22 µM (inactive), the GI50 (HT-29) was 1.87 µM (inactive) and the GI50 (Hs-578T) was 3.28 µM (inactive). The GI50 (IGROV-1) was 3.85 µM (inactive), the GI50 (K562) was 3.06 µM (inactive) and the GI50 (KM12) was 1.28 µM (inactive). The GI50 (LOX IMVI) was 0.538 µM (active), the GI50 (M14) was 2.36 µM (inactive) and the GI50 (MCF7) was 0.208 µM (active). The GI50 (MDA-MB-231) was 2.73 µM (inactive), the GI50 (MDA-MB-435) was 2.59 µM (inactive) and the GI50 (MDA-N) was 2.52 µM (inactive). The GI50 (MOLT-4) was 1.3 µM (inactive), the GI50 (Malme-3M) was 2.2 µM (inactive) and the GI50 (NCI-H226) was 2.96 µM (inactive). The GI50 (NCI-H23) was 1.91 µM (inactive), the GI50 (NCI-H460) was 4.88 µM (inactive) and the GI50 (NCI/ADR-RES) was 1.94 µM (inactive). The GI50 (OVCAR-3) was 1.97 µM (inactive), the GI50 (OVCAR-4) was 2.35 µM (inactive) and the GI50 (OVCAR-5) was 2.45 µM (inactive). The GI50 (OVCAR-8) was 2 µM (inactive), the GI50 (PC-3) was 4.74 µM (inactive) and the GI50 (RPMI-8226) was 0.656 µM (active). For the same molecule, the GI50 (RXF 393) was 1.93 µM (inactive), the GI50 (SF-268) was 3.37 µM (inactive) and the GI50 (SF-295) was 3.56 µM (inactive). The GI50 (SF-539) was 1.77 µM (inactive), the GI50 (SK-MEL-28) was 2.65 µM (inactive) and the GI50 (SK-MEL-2) was 3.52 µM (inactive). For the same molecule, the GI50 (SK-MEL-5) was 3.64 µM (inactive), the GI50 (SK-OV-3) was 24.2 µM (inactive) and the GI50 (SN12C) was 2.01 µM (inactive). For the same molecule, the GI50 (SNB-19) was 5.35 µM (inactive), the GI50 (SNB-75) was 6.04 µM (inactive) and the GI50 (SR) was 0.796 µM (active). For the same molecule, the GI50 (SW-620) was 1.95 µM (inactive), the GI50 (T47D) was 1.06 µM (active) and the GI50 (TK-10) was 1.73 µM (inactive). The GI50 (U-251) was 1.72 µM (inactive), the GI50 (UACC-257) was 3.48 µM (inactive) and the GI50 (UACC-62) was 3.34 µM (inactive). The GI50 (UO-31) was 1.83 µM (inactive).
For `Cc1nc(-n2[nH]c(C)c(CCO)c2=O)[nH]c(=O)c1CCO`, the GI50 (786-0) was > 100 µM (inactive), the GI50 (A498) was 93.1 µM (inactive) and the GI50 (A549) was > 100 µM (inactive). For the same molecule, the GI50 (ACHN) was > 100 µM (inactive), the GI50 (BT-549) was > 100 µM (inactive) and the GI50 (CAKI-1) was > 100 µM (inactive). The GI50 (CCRF-CEM) was > 100 µM (inactive), the GI50 (COLO 205) was > 100 µM (inactive) and the GI50 (DU-145) was > 100 µM (inactive). For the same molecule, the GI50 (EKVX) was > 100 µM (inactive), the GI50 (HCC 2998) was > 100 µM (inactive) and the GI50 (HCT-116) was > 100 µM (inactive). The GI50 (HCT-15) was > 100 µM, the GI50 (HL-60) was > 100 µM (inactive) and the GI50 (HOP-62) was > 100 µM (inactive). The GI50 (HOP-92) was > 100 µM (inactive), the GI50 (HT-29) was > 100 µM (inactive) and the GI50 (Hs-578T) was > 100 µM (inactive). The GI50 (IGROV-1) was > 100 µM (inactive), the GI50 (K562) was > 100 µM (inactive) and the GI50 (KM12) was > 100 µM (inactive). The GI50 (LOX IMVI) was > 100 µM (inactive), the GI50 (M14) was > 100 µM (inactive) and the GI50 (MCF7) was > 100 µM (inactive). For the same molecule, the GI50 (MDA-MB-231) was > 100 µM (inactive), the GI50 (MDA-MB-435) was > 100 µM (inactive) and the GI50 (MDA-N) was > 100 µM (inactive). The GI50 (MOLT-4) was > 100 µM (inactive), the GI50 (Malme-3M) was < 0.01 µM (active) and the GI50 (NCI-H226) was > 100 µM (inactive). For the same molecule, the GI50 (NCI-H23) was > 100 µM (inactive), the GI50 (NCI-H460) was > 100 µM (inactive) and the GI50 (NCI-H522) was > 100 µM (inactive). For the same molecule, the GI50 (NCI/ADR-RES) was > 100 µM (inactive), the GI50 (OVCAR-3) was > 100 µM (inactive) and the GI50 (OVCAR-4) was > 100 µM (inactive). The GI50 (OVCAR-5) was > 10 µM (inactive), the GI50 (OVCAR-8) was > 100 µM (inactive) and the GI50 (PC-3) was > 100 µM (inactive). The GI50 (RPMI-8226) was > 100 µM (inactive), the GI50 (RXF 393) was > 100 µM (inactive) and the GI50 (SF-268) was > 100 µM (inactive). The GI50 (SF-295) was > 100 µM (inactive), the GI50 (SF-539) was > 100 µM (inactive) and the GI50 (SK-MEL-28) was > 100 µM (inactive). The GI50 (SK-MEL-5) was > 100 µM (inactive), the GI50 (SK-OV-3) was > 100 µM (inactive) and the GI50 (SN12C) was > 100 µM (inactive). For the same molecule, the GI50 (SNB-19) was > 100 µM (inactive), the GI50 (SNB-75) was > 100 µM (inactive) and the GI50 (SR) was > 100 µM (inactive). The GI50 (SW-620) was > 100 µM (inactive), the GI50 (T47D) was > 100 µM (inactive) and the GI50 (TK-10) was > 100 µM (inactive). For the same molecule, the GI50 (U-251) was > 100 µM (inactive), the GI50 (UACC-257) was > 100 µM (inactive) and the GI50 (UACC-62) was > 100 µM (inactive). The GI50 (UO-31) was > 100 µM (inactive).
